Laboratory results reported in the NIST ThermoML archive (doi:10.1016/j.jct.2008.10.002).
Numbers after ± are expanded uncertainties.

Tests used:
[1] = 101.33 kPa, Liquid, Vibrating tube method
[2] = molar heat capacity at constant pressure; details: 101.33 kPa, Liquid, Small sample (50 mg) DSC
[3] = excess molar enthalpy (molar enthalpy of mixing); xn = mol fraction of the nth substance listed; details: 303.15 K, 101.3 kPa, Liquid

mass density ([1]; 308.15 K) [kg/m3]	molar heat capacity at constant pressure ([2]; 293.15 K) [J/K/mol]	molar heat capacity at constant pressure ([2]; 298.15 K) [J/K/mol]	molar heat capacity at constant pressure ([2]; 303.15 K) [J/K/mol]	molar heat capacity at constant pressure ([2]; 308.15 K) [J/K/mol]	molar heat capacity at constant pressure ([2]; 313.15 K) [J/K/mol]	molar heat capacity at constant pressure ([2]; 318.15 K) [J/K/mol]	SMILES	mass density ([1]; 293.15 K) [kg/m3]	mass density ([1]; 298.15 K) [kg/m3]	mass density ([1]; 303.15 K) [kg/m3]	mass density ([1]; 313.15 K) [kg/m3]	mass density ([1]; 318.15 K) [kg/m3]	excess molar enthalpy ([3]; x1 = 0.1023) [kcal/mol]	excess molar enthalpy ([3]; x1 = 0.2013) [kcal/mol]	excess molar enthalpy ([3]; x1 = 0.3036) [kcal/mol]	excess molar enthalpy ([3]; x1 = 0.4004) [kcal/mol]	excess molar enthalpy ([3]; x1 = 0.4891) [kcal/mol]	excess molar enthalpy ([3]; x1 = 0.5761) [kcal/mol]	excess molar enthalpy ([3]; x1 = 0.6659) [kcal/mol]	excess molar enthalpy ([3]; x1 = 0.8154) [kcal/mol]
							CCCC[n+]1cccc(C)c1.F[B-](F)(F)F [1-butyl-3-methylpyridinium tetrafluoroborate] + O						0.261 ± 0.00574	0.421 ± 0.00884	0.514 ± 0.0108	0.554 ± 0.0115	0.543 ± 0.0112	0.497 ± 0.0105	0.428 ± 0.00908	0.256 ± 0.0055
1230.4 ± 0.4	392.2 ± 6.1	394.4 ± 6.1	396.8 ± 6.1	399.3 ± 6.2	402 ± 6.2	404.9 ± 6.3	CCOS(=O)(=O)[O-].CCn1cc[n+](C)c1 [1-ethyl-3-methylimidazolium ethyl sulfate]	1240.6 ± 0.4	1237.2 ± 0.4	1233.8 ± 0.4	1227 ± 0.4	1223.7 ± 0.4								
1376.9 ± 0.6	361.1 ± 5.6	363.2 ± 5.6	365.3 ± 5.7	367.4 ± 5.7	369.6 ± 5.7	371.8 ± 5.8	CCn1cc[n+](C)c1.O=S(=O)([O-])C(F)(F)F [1-ethyl-3-methylimidazolium trifluoromethanesulfonate]	1389.5 ± 0.6	1385.3 ± 0.6	1381.1 ± 0.6	1372.7 ± 0.6	1368.6 ± 0.6								
994.1 ± 0.3	75.4 ± 1.2	75.3 ± 1.2	75.3 ± 1.2	75.2 ± 1.2	75.2 ± 1.2	75.3 ± 1.2	O [water]													

SMILES	mass density ([1]; 308.15 K) [kg/m3]	molar heat capacity at constant pressure ([2]; 293.15 K) [J/K/mol]	molar heat capacity at constant pressure ([2]; 298.15 K) [J/K/mol]	molar heat capacity at constant pressure ([2]; 303.15 K) [J/K/mol]	molar heat capacity at constant pressure ([2]; 308.15 K) [J/K/mol]	molar heat capacity at constant pressure ([2]; 313.15 K) [J/K/mol]	molar heat capacity at constant pressure ([2]; 318.15 K) [J/K/mol]	mass density ([1]; 293.15 K) [kg/m3]	mass density ([1]; 298.15 K) [kg/m3]	mass density ([1]; 303.15 K) [kg/m3]	mass density ([1]; 313.15 K) [kg/m3]	mass density ([1]; 318.15 K) [kg/m3]	excess molar enthalpy ([3]; x1 = 0.1023) [kcal/mol]	excess molar enthalpy ([3]; x1 = 0.2013) [kcal/mol]	excess molar enthalpy ([3]; x1 = 0.3036) [kcal/mol]	excess molar enthalpy ([3]; x1 = 0.4004) [kcal/mol]	excess molar enthalpy ([3]; x1 = 0.4891) [kcal/mol]	excess molar enthalpy ([3]; x1 = 0.5761) [kcal/mol]	excess molar enthalpy ([3]; x1 = 0.6659) [kcal/mol]	excess molar enthalpy ([3]; x1 = 0.8154) [kcal/mol]
CCCCn1cc[n+](C)c1.COS(=O)(=O)[O-] [1-butyl-3-methylimidazolium methyl sulfate]	1200.8 ± 0.4	413.7 ± 6.4	416.2 ± 6.4	418.5 ± 6.5	420.9 ± 6.5	423.3 ± 6.6	425.6 ± 6.6	1210.7 ± 0.4	1207.4 ± 0.4	1204.1 ± 0.4	1197.5 ± 0.4	1194.2 ± 0.4								
CCCCn1cc[n+](C)c1.O=S(=O)([O-])C(F)(F)F [1-butyl-3-methylimidazolium trifluoromethanesulfonate]	1289.7 ± 0.5	421.6 ± 6.5	424.1 ± 6.6	426.7 ± 6.6	429.5 ± 6.7	432.4 ± 6.7	435.5 ± 6.7	1301.6 ± 0.5	1297.6 ± 0.5	1293.7 ± 0.5	1285.8 ± 0.5	1281.9 ± 0.5								
